Laboratory results reported in patent US20080119515A1, “Heterocyclic Kinase Inhibitors: Methods of Use and Synthesis” (priority 2003, published 2008).
pIC50: −log10 of the molar value.

target: T1, ZAP-70 (Homo sapiens, UniProt P43403); assay: DELFIA assay (ZAP-70 kinase, phosphorylation of biotinylated poly(glu,tyr)); assay type: biochemical; conditions: ZAP-70 DELFIA, class symbols; read-out: Activity (IC50 in vitro)
T1 sequence (P43403 1-619): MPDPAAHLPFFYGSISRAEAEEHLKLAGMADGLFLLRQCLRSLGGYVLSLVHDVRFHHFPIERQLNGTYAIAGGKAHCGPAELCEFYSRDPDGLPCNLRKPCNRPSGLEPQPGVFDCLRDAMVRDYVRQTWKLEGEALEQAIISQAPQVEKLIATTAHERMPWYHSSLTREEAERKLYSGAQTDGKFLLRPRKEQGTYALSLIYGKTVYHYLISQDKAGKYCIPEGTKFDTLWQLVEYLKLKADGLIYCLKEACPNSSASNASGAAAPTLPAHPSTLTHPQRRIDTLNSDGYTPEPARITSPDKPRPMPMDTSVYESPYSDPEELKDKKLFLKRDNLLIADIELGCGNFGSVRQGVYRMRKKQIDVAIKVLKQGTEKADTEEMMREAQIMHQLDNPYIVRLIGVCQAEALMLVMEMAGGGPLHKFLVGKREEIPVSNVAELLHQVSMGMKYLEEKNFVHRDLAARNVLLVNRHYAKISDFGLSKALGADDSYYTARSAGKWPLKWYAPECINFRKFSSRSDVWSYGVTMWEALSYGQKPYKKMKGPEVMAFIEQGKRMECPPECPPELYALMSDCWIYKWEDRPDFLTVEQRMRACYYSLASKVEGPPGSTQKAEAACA
How it was run: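 3.1 nM ZAP-70 pre-incubated 10 min at room temperature with compound ([…]) and 62.5 nM biotinylated poly(glu,tyr) in 62.5 mM Mops pH 7.0, 12.5 mM MgCl2, 12.5% glycerol, 6.25% DMSO (pre-incubation concentrations); ATP added from 5 mM stock, 30 min reaction, EDTA stop. Phosphorylation read by DELFIA europium anti-phosphotyrosine fluorescence (340/615).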

| SMILES | pIC50 |
| --- | --- |
| O=C(c1cc(CCc2ccccc2F)nc2ccc(-c3ccc4c(c3)OCO4)cc12)N1CCC[C@H]1CN1CCCC1 [Compound 395] | > 6.00 |
| O=C(c1cc(CCc2cccc(F)c2)nc2ccc(-c3ccc4c(c3)OCO4)cc12)N1CCC[C@H]1CN1CCCC1 [Compound 396] | > 6.00 |
| O=C(c1cc(CCc2ccc(F)cc2F)nc2ccc(-c3ccc4c(c3)OCO4)cc12)N1CCC[C@H]1CN1CCCC1 [Compound 397] | > 6.00 |
| CCCCCc1ccc(CCc2cc(C(=O)N3CCC[C@H]3CN3CCCC3)c3cc(-c4ccc5c(c4)OCO5)ccc3n2)cc1 [Compound 398] | > 6.00 |
| O=C(c1ccnc2ccc(-c3ccc4c(c3)OCO4)cc12)N1CCC[C@H]1CN1CCCC1 [Compound 399] | < 5.00 |
| O=C(c1cc(Cc2ccc(Cl)cc2)nc2ccc(-c3ccc4c(c3)OCO4)cc12)N1CCC[C@H]1CN1CCCC1 [Compound 400] | > 6.00 |
| O=C(c1cc(Cc2ccc(Cl)cc2Cl)nc2ccc(-c3ccc4c(c3)OCO4)cc12)N1CCC[C@H]1CN1CCCC1 [Compound 401] | > 6.00 |
| C[Si](C)(C)C#Cc1cc(C(=O)N2CCC[C@H]2CN2CCCC2)c2cc(-c3ccc4c(c3)OCO4)ccc2n1 [Compound 402] | > 6.00 |
| COc1ccc(C#Cc2cc(C(=O)N3CCC[C@H]3CN3CCCC3)c3cc(-c4ccc5c(c4)OCO5)ccc3n2)cc1 [Compound 403] | > 6.00 |
| O=C(c1cc(C#Cc2cccc(C(F)(F)F)c2)nc2ccc(-c3ccc4c(c3)OCO4)cc12)N1CCC[C@H]1CN1CCCC1 [Compound 404] | > 6.00 |
| CCN(Cc1ccc(C)cc1)c1cc(C(=O)N2CCC[C@H]2CN2CCCC2)c2cc(-c3ccc4c(c3)OCO4)ccc2n1 [Compound 405] | > 6.00 |
| O=C(c1cc(CCCc2ccc(Cl)cc2)nc2ccc(-c3ccc4c(c3)OCO4)cc12)N1CCC[C@H]1CN1CCCC1 [Compound 406] | > 6.00 |
| O=C(c1cc(CCCCc2ccc(Cl)cc2)nc2ccc(-c3ccc4c(c3)OCO4)cc12)N1CCC[C@H]1CN1CCCC1 [Compound 407] | > 6.00 |
| C[Si](C)(C)CCc1cc(C(=O)N2CCC[C@H]2CN2CCCC2)c2cc(-c3ccc4c(c3)OCO4)ccc2n1 [Compound 408] | < 5.00 |
| COc1ccc(CCc2cc(C(=O)N3CCC[C@H]3CN3CCCC3)c3cc(-c4ccc5c(c4)OCO5)ccc3n2)cc1 [Compound 409] | < 5.00 |
| O=C(c1cc(CCc2cccc(C(F)(F)F)c2)nc2ccc(-c3ccc4c(c3)OCO4)cc12)N1CCC[C@H]1CN1CCCC1 [Compound 410] | > 6.00 |
| O=C(c1cc(NCc2ccc(C(F)(F)F)cc2)nc2ccc(-c3ccc4c(c3)OCO4)cc12)N1CC=C[C@H]1CN1CCCC1 [Compound 411] | > 6.00 |
| CN(C)c1ccc(Nc2cc(/C=C/c3ccc(F)cc3)nc3ccc(-c4ccc5c(c4)OCO5)cc23)cc1 [Compound 412] | < 5.00 |
| Fc1ccc(/C=C/c2cc(Nc3ccc(N4CCNCC4)cc3)c3cc(-c4ccc5c(c4)OCO5)ccc3n2)cc1 [Compound 413] | 5.00 to 6.00 |
| Fc1ccc(CCc2cc(Nc3ccc(N4CCNCC4)cc3)c3cc(-c4ccc5c(c4)OCO5)ccc3n2)cc1 [Compound 414] | < 5.00 |
| CN(C)c1ccc(Nc2cc(CCc3ccc(F)cc3)nc3ccc(-c4ccc5c(c4)OCO5)cc23)cc1 [Compound 415] | < 5.00 |
| O=C(c1cc(NCc2ccc(C(F)(F)F)cc2)nc2ccc(-c3cccc(CO)c3)cc12)N1CCC[C@H]1CN1CCCC1 [Compound 416] | < 5.00 |
| O=C(c1cc(NCc2ccc(C(F)(F)F)cc2)nc2ccc(-c3ccc(CO)cc3)cc12)N1CCC[C@H]1CN1CCCC1 [Compound 417] | < 5.00 |
| COc1cc(-c2ccc3nc(NCc4ccc(C(F)(F)F)cc4)cc(C(=O)N4CCC[C@H]4CN4CCCC4)c3c2)ccc1O [Compound 418] | < 5.00 |
| O=C(c1cc(NCc2ccc(C(F)(F)F)cc2)nc2ccc(-c3ccc(O)cc3)cc12)N1CCC[C@H]1CN1CCCC1 [Compound 419] | < 5.00 |
| CN(C)C(=O)c1ccc(-c2ccc3nc(NCc4ccc(C(F)(F)F)cc4)cc(C(=O)N4CCC[C@H]4CN4CCCC4)c3c2)cc1 [Compound 420] | < 5.00 |
| Cn1ccc2cc(-c3ccc4nc(NCc5ccc(C(F)(F)F)cc5)cc(C(=O)N5CCC[C@H]5CN5CCCC5)c4c3)ccc21 [Compound 421] | < 5.00 |

| SMILES | pIC50 |
| --- | --- |
| CC(C)(C)/C=C/c1ccc2nc(NCc3ccc(C(F)(F)F)cc3)cc(C(=O)N3CCC[C@H]3CN3CCCC3)c2c1 [Compound 422] | < 5.00 |
| Nc1ccc(-c2ccc3nc(NCc4ccc(C(F)(F)F)cc4)cc(C(=O)N4CCC[C@H]4CN4CCCC4)c3c2)cc1 [Compound 424] | < 5.00 |
| O=C(c1cc(NCc2ccc(C(F)(F)F)cc2)nc2ccc(-c3cccc([C@H]4CCNC[C@@H]4O)c3)cc12)N1CCC[C@H]1CN1CCCC1 [Compound 425] | < 5.00 |
| O=C(c1cc(NCc2ccc(C(F)(F)F)cc2)nc2ccc(-c3ccc(C4CCNC[C@H]4O)cc3)cc12)N1CCC[C@H]1CN1CCCC1 (stereo partly drawn) [Compound 426] | < 5.00 |
| O=C(c1cc(NCc2ccc(C(F)(F)F)cc2)nc2ccc(-c3cccc([C@H]4CNCC[C@@H]4O)c3)cc12)N1CCC[C@H]1CN1CCCC1 [Compound 427] | < 5.00 |
| O=C(c1cc(Nc2ccc(N3CCNCC3)cc2)nc2ccc(-c3ccc4c(c3)OCO4)cc12)N1CCCC1CN1CCCC1 (stereo not drawn) [Compound 428] | > 6.00 |
| CN1CCN(c2ccc(Nc3cc(C(=O)N4CCCC4CN4CCCC4)c4cc(-c5ccc6c(c5)OCO6)ccc4n3)cc2)CC1 (stereo not drawn) [Compound 429] | > 6.00 |
| O=C(c1cc(Nc2cccc(C3CCNC[C@@H]3O)c2)nc2ccc(-c3ccc4c(c3)OCO4)cc12)N1CCCC1CN1CCCC1 (stereo partly drawn) [Compound 430] | > 6.00 |
| O=C(Cc1cc(C(=O)N2CCC[C@H]2CN2CCCC2)c2cc(-c3ccc4c(c3)OCO4)ccc2n1)c1ccc(C(F)(F)F)cc1 [Compound 431] | 5.00 to 6.00 |
| Nc1cc(-c2ccc3c(c2)OCO3)cc2c(C(=O)N3CCC[C@H]3CN3CCCC3)cc(CCc3ccc(C(F)(F)F)cc3)nc12 [Compound 432] | > 6.00 |
| Nc1cc(CCc2ccc(C(F)(F)F)cc2)cc2c(C(=O)N3CCC[C@H]3CN3CCCC3)cc(CCc3ccc(C(F)(F)F)cc3)nc12 [Compound 433] | > 6.00 |
| O=C(c1cc(CCCc2ccccc2)nc2ccc(-c3ccc4c(c3)OCO4)cc12)N1CCC[C@H]1CN1CCCC1 [Compound 434] | > 6.00 |
| O=C(c1cc(CCCCc2ccccc2)nc2ccc(-c3ccc4c(c3)OCO4)cc12)N1CCC[C@H]1CN1CCCC1 [Compound 435] | > 6.00 |
| O=C(c1cc(CC(O)c2ccc(C(F)(F)F)cc2)nc2ccc(-c3ccc4c(c3)OCO4)cc12)N1CCC[C@H]1CN1CCCC1 (stereo partly drawn) [Compound 436] | > 6.00 |
| NCc1ccc(CNc2cc(C(=O)N3CCC[C@H]3CN3CCCC3)c3cc(-c4ccc5c(c4)OCO5)ccc3n2)cc1 [Compound 437] | > 6.00 |
| CC1CN(c2ccc(Cc3cc(C(=O)N4CCCC4CN4CCCC4)c4cc(-c5ccc6c(c5)OCO6)ccc4n3)cc2)CCN1 (stereo not drawn) [Compound 438] | > 6.00 |
| O=C(c1cc(Cc2ccc(N3CCNCC3)cc2)nc2ccc(-c3ccc4c(c3)OCO4)cc12)N1CCCC1CN1CCCC1 (stereo not drawn) [Compound 439] | > 6.00 |
| O=C(c1cc(Cc2ccc(N3CCN(c4ccncc4)CC3)cc2)nc2ccc(-c3ccc4c(c3)OCO4)cc12)N1CCCC1CN1CCCC1 (stereo not drawn) [Compound 440] | > 6.00 |
| CN(C)CCCN1CCN(c2ccc(Cc3cc(C(=O)N4CCCC4CN4CCCC4)c4cc(-c5ccc6c(c5)OCO6)ccc4n3)cc2)CC1 (stereo not drawn) [Compound 441] | > 6.00 |
| CN(C)CCN1CCN(c2ccc(Cc3cc(C(=O)N4CCCC4CN4CCCC4)c4cc(-c5ccc6c(c5)OCO6)ccc4n3)cc2)CC1 (stereo not drawn) [Compound 442] | > 6.00 |
| O=C(c1cc(Cc2ccc(N3CCN(Cc4ccncc4)CC3)cc2)nc2ccc(-c3ccc4c(c3)OCO4)cc12)N1CCCC1CN1CCCC1 (stereo not drawn) [Compound 443] | > 6.00 |
| O=C(c1cc(Cc2ccc(N3CCN(CCc4ccncc4)CC3)cc2)nc2ccc(-c3ccc4c(c3)OCO4)cc12)N1CCCC1CN1CCCC1 (stereo not drawn) [Compound 444] | > 6.00 |
| O=C(c1cc(Cc2ccc(N3CCC4(CC3)CNC4)cc2)nc2ccc(-c3ccc4c(c3)OCO4)cc12)N1CCCC1CN1CCCC1 (stereo not drawn) [Compound 445] | > 6.00 |
| O=C(c1cc(Cc2ccc(N3CCC4(CCNC4)CC3)cc2)nc2ccc(-c3ccc4c(c3)OCO4)cc12)N1CCCC1CN1CCCC1 (stereo not drawn) [Compound 446] | > 6.00 |
| O=C(c1cc(Cc2ccc(N3CCC4(CCNCC4)CC3)cc2)nc2ccc(-c3ccc4c(c3)OCO4)cc12)N1CCCC1CN1CCCC1 (stereo not drawn) [Compound 447] | > 6.00 |
| CN1CCN(c2ccc(Nc3cc(Nc4ccc(N5CCN(C)CC5)cc4)c4cc(-c5ccc6c(c5)OCO6)ccc4n3)cc2)CC1 [Compound 448] | > 6.00 |
| c1cc(N2CCNCC2)ccc1Nc1cc(Nc2ccc(N3CCNCC3)cc2)c2cc(-c3ccc4c(c3)OCO4)ccc2n1 [Compound 449] | > 6.00 |
